Legend:
[1] = system: ERK (pERK); assay: Western blot, sRANKL-induced ERK phosphorylation in RAW264.7 cells; format: cell-based, mouse; settings: RAW264.7, 30 min pre-treatment, sRANKL 50 ng/ml, FIG. 3A-3B
Experimental: FIGS. 3A-3D are data collected from Western blot analysis that respectively depict the expression of specified protein extracted from the RAW264.7 cells, which are pre-treated with specified concentrations of MLN4924 for 30 minutes followed by the stimulation of sRANKL (50 ng/ml) according to example 2 of the present disclosure. FIG. 3A: the time course effect of MLN4924 on the phosphorylations of ERK (pERK), P38 (pP38) and JNK (pJNK). FIG. 3B: the dose effect of MLN4924 on the phosphorylations of ERK (pERK), P38 (pP38) and JNK (pJNK). FIG. 3C: the time course effect of MLN4924 on the expression of NFATc-1. FIG. 3D: the dose effect of MLN4924 on the expression of NFATc-1. Mock: untreated control; R: sRANKL; M: MLN4924.
The RAW264.7 cells were starved with serum-free medium for six hours and then treated with the specified treatments. At indicated time points, the cells were washed with cold phosphate-buffered saline (PBS) and lysed in RIPA buffer containing complete protease inhibitor cocktail (Roche). The cell lysates were separated by SDS-PAGE followed by Western blotting with the indicated antibodies, including NEDD8, APPBP1, UBA3.
Specifically, the inhibitory effect increased with an increase in the MLN4924 concentration (FIG. 3B).

[2] = system: primary mouse bone marrow-derived macrophages (BMMs); assay: Osteoclast formation from BMMs, TRAP staining; format: cell-based; settings: sRANKL 50 ng/ml, M-CSF 40 ng/ml, 7 days, FIG. 1A
Experimental: FIGS. 1A-1D are data collected from primary mouse bone marrow-derived macrophages (BMMs) respectively incubated in the medium containing the soluble recombinant RANKL (sRANKL, 50 ng/ml), macrophage colony-stimulating factor (M-CSF, 40 ng/ml) and specified concentrations of MLN4924 for 7 days according to example 1.1 of the present disclosure. FIG. 1A: the photographs of TRAP staining depicting the differentiation of osteoclasts from BMMs. FIG. 1B: after the differentiation of osteoclasts in Corning Osteo Surface (a synthetic 3-dimensional structure that mimics in vivo bone for in vitro bone cell assays), the cells were removed, and the resorbed areas for confirming osteoclast activity were analyzed by 1% toluidine blue staining. FIG. 1C: the culture medium is subject to Biovision Cathepsin K Activity Fluorometric Assay Kit for the analysis of cathepsin K activity. FIG. 1D: the effect of effective doses of MLN4924 on the viability of BMMs is evaluated by MTT assay. Scale bar represents 100 μm. Data are expressed as mean±SD where *p<0.05; **p<0.01.
The pre-osteoclast cells were prepared by mouse bone marrow-derived macrophage (BMM). In brief, the femurs and tibias were obtained from 6-12 week old C57BL/6J female mice. […]

[3] = system: RAW264.7 cells; assay: Osteoclast formation from RAW264.7 cells, TRAP staining; format: cell-based, mouse; settings: sRANKL-activated RAW264.7 cells, 7 days, FIG. 2A
Experimental: FIGS. 2A-2D are data collected from RAW264.7 cells respectively incubated in the medium containing sRANKL (50 ng/ml) and specified concentrations of MLN4924 for 7 days according to example 1.2 of the present disclosure. FIG. 2A: the photographs of TRAP staining depicting the differentiation of osteoclasts from RAW264.7 cells. FIG. 2B: after the differentiation of osteoclasts in Corning Osteo Surface, the cells were removed, and the resorbed areas for confirming osteoclast activity were analyzed by 1% toluidine blue staining. FIG. 2C: the culture medium is subject to Biovision Cathepsin K Activity Fluorometric Assay Kit for the analysis of cathepsin K activity. FIG. 2D: the effect of effective doses of MLN4924 on the viability of RAW264.7 cells is evaluated by MTT assay. Scale bar represents 100 μm. Data are expressed as mean±SD where *p<0.05.
RAW264.7 cells (murine monocytic/macrophage cell line) were cultured in Dulbecco's modified Eagle's medium high glucose (DMEM)(Gibco BRL, Gaithersburg, Md.) containing 10% fetal bovine serum (Gibco) and 1× GlutaMax (Gibco).
For in vitro osteoclast formation, the pre-osteoclasts and RAW264.7 cells were cultured in the medium containing 50 ng/ml sRANKL […] specified concentrations of MLN4924 for seven days. […]

[4] = system: MC3T3-E1 cells; assay: Osteogenesis, Alizarin Red S stain of MC3T3-E1 cells; format: cell-based, mouse; settings: MC3T3-E1, osteoblast differentiation medium, 21 days, FIG. 4B
Experimental: FIGS. 4A-4B respectively depict the osteogenesis of mouse pre-osteoblast cell line MC3T3-E1 cells incubated in the differentiation medium containing specified concentrations of MLN4924 for 21 days according to example 3 of the present disclosure. FIG. 4A: the growth of MC3T3-E1 cells during osteogenesis is analyzed by crystal violet staining. FIG. 4B: the osteogenesis of MC3T3-E1 cells on day 21 is analyzed by measuring Alizarin Red S stain. Diff: osteoblast differentiation medium. MLN: MLN4924.
The mouse pre-osteoblast cell line MC3T3-E1 cells were cultured in osteoblast differentiation medium with or without MLN4924 for 21 days.

Structure (SMILES): NS(=O)(=O)OC[C@@H]1C[C@@H](n2ccc3c(N[C@H]4CCc5ccccc54)ncnc32)C[C@@H]1O [MLN4924, (1S,2S,4R)-4-(4-((1S)-2,3-Dihydro-1H-inden-1-ylamino)-7H-pyrrolo(2,3-d)pyrimidin-7-yl)-2-hydroxycyclopentyl) methyl sulphamate]
- sRANKL-upregulated phosphorylation of ERK (pERK) [1]: inhibited
- sRANKL-mediated osteoclast formation (TRAP staining) [2]: obviously suppressed the sRANKL-mediated osteoclast formation in a dose-dependent manner
- differentiation of osteoclasts (TRAP staining) [3]: significantly inhibited
- differentiation of osteoblasts (Alizarin Red S) [4]: neither the survival of osteoblasts (FIG. 4A), nor the differentiation of osteoblasts (FIG. 4B) was affected
